Values after ≈ are worked out from the molar mass of the structure shown. Structures can show the parent of a compound that is named as a salt. Where two headings read alike, the source gives them in different places.
Tests used:
Assay in all cases: Antibacterial activities, MIC
Assay type in all cases: cell-based
Pseud. aeruginosa EP-01 = system: Pseud. aeruginosa EP-01
Morg. morganii EP-14 = system: Morg. morganii EP-14
Staph. aureus 209-P = system: Staph. aureus 209-P
Ser. marcescens ES-75 = system: Ser. marcescens ES-75
Kleb Pneumoniae EK-6 = system: Kleb Pneumoniae EK-6
Escher. coli NIHJ = system: Escher. coli NIHJ
[1] = Pseudomonas aeruginosa, EP01, Pseud. aeruginosa EP-01, read-out: MIC
[2] = Morganella morganii, EP14, Morg. morganii EP-14, read-out: MIC
[3] = Staphylococcus aureus, read-out: MIC
[4] = Serratia marcescens, ES75, read-out: MIC
[5] = Escherichia coli, read-out: MIC

Row | SMILES | MIC (Pseud. aeruginosa EP-01; [1]) [mg/L] | MIC (Morg. morganii EP-14; [2]) [mg/L] | MIC (Staph. aureus 209-P; [3]) [mg/L] | MIC (Ser. marcescens ES-75; [4]) [mg/L] | MIC (Kleb Pneumoniae EK-6; read-out: MIC) [mg/L] | MIC (Escher. coli NIHJ; [5]) [mg/L] | MIC (Pseud. aeruginosa EP-01; Pseud. aeruginosa EP-01) [mg/L] | MIC (Morg. morganii EP-14; Morg. morganii EP-14) [mg/L] | MIC (Staph. aureus 209-P) [mg/L] | MIC (Ser. marcescens ES-75) [mg/L] | MIC (Kleb Pneumoniae EK-6) [mg/L] | MIC (Escher. coli NIHJ) [mg/L]
1 | CC[N+](CC)(C/C=C/C1=C(C(=O)[O-])N2C(=O)[C@@H](NC(=O)/C(=N\OC)c3nsc(N)n3)[C@H]2SC1)CC(N)=O [Example 11, 7β-[2-(5-Amino-1,2,4-thiadiazol-3-yl)-(Z)-2-methoxyiminoacetamido]-3-[(E)-3-(carbamoylmethyldiethylammonio)-1-propen-1-yl]-3-cephem-4-carboxylate] | 1.56 (≈ 2.82 µM) | 0.05 (≈ 0.0905 µM) | 0.2 (≈ 0.362 µM) | 0.1 (≈ 0.181 µM) | ≤ 0.025 | 0.05 (≈ 0.0905 µM) |  |  |  |  |  | 
2 | CO/N=C(\C(=O)N[C@@H]1C(=O)N2C(C(=O)[O-])=C(/C=C/C[N+](C)(C)Cc3ncon3)CS[C@H]12)c1nsc(N)n1 [Example 21] | 1.56 (≈ 2.84 µM) | ≤ 0.025 | 0.2 (≈ 0.364 µM) | 0.05 (≈ 0.091 µM) | ≤ 0.025 | ≤ 0.025 |  |  |  |  |  | 
3 | CO/N=C(\C(=O)N[C@@H]1C(=O)N2C(C(=O)[O-])=C(/C=C/C[N+]34CCC(C(N)=O)(CC3)CC4)CS[C@H]12)c1nsc(N)n1 [Example 4, 7β-[2-(5-Amino-1,2,4-thiadiazol-3-yl)-(Z)-2-methoxyiminoacetamido]-3-[(E)-3-(4-carbamoylquinuclidinio)-1-propen-1-yl]-3-cephem-4-carboxylate] | 1.56 (≈ 2.71 µM) | 0.05 (≈ 0.0867 µM) | 0.4 (≈ 0.694 µM) | 0.1 (≈ 0.173 µM) | ≤ 0.025 | 0.05 (≈ 0.0867 µM) |  |  |  |  |  | 
4 | CO/N=C(\C(=O)N[C@@H]1C(=O)N2C(C(=O)[O-])=C(/C=C/C[N+](C)(C)CCC(N)=O)CS[C@H]12)c1nsc(N)n1 [Example 35, 7β-[2-(5-Amino-1,2,4-thiadiazol-3-yl)-(Z)-2-methoxyiminoacetamido]-3-[(E)-3-[N,N-dimethyl-N-(2-carbamoylethyl)ammonio]-1-propen-1-yl]-3-cephem-4-carboxylate] | 0.8 (≈ 1.49 µM) | 0.05 (≈ 0.0928 µM) | 0.2 (≈ 0.371 µM) | 0.05 (≈ 0.0928 µM) | 0.1 (≈ 0.186 µM) | ≤ 0.025 |  |  |  |  |  | 
5 | CO/N=C(\C(=O)N[C@@H]1C(=O)N2C(C(=O)[O-])=C(/C=C/C[N+]34CCN(CC3)CC4)CS[C@H]12)c1nsc(N)n1 [Example 32, 7β-[2-(5-Amino-1,2,4-thiadiazol-3-yl)-(Z)-2-methoxyiminoacetamido]-3-[(E)-3-(1,4-diazabicyclo[2,2,2]octan-1-io)-1-propen-1-yl]-3-cephem-4-carboxylate] | 0.8 (≈ 1.5 µM) | 0.05 (≈ 0.0935 µM) | 0.2 (≈ 0.374 µM) | 0.1 (≈ 0.187 µM) | ≤ 0.025 | ≤ 0.025 |  |  |  |  |  | 
6 | CO/N=C(\C(=O)N[C@@H]1C(=O)N2C(C(=O)[O-])=C(/C=C/C[N+]3(C)CCN(C(N)=O)CC3)CS[C@H]12)c1nsc(N)n1 [Example 29, 7β-[2-(5-Amino-1,2,4-thiadiazol-3-yl)-(Z)-2-methoxyiminoacetamido]-3-[(E)-3-(1-methyl-4-carbamoyl-1-piperazinio)-1-propen-1-yl]-3-cephem-4-carboxylate] | 1.56 (≈ 2.76 µM) | 0.05 (≈ 0.0884 µM) | 0.4 (≈ 0.707 µM) | 0.1 (≈ 0.177 µM) | 0.05 (≈ 0.0884 µM) | 0.05 (≈ 0.0884 µM) |  |  |  |  |  | 
7 | CO/N=C(\C(=O)N[C@@H]1C(=O)N2C(C(=O)[O-])=C(/C=C/C[N+]3(C)CCS(=O)(=O)CC3)CS[C@H]12)c1nsc(N)n1 [Example 31, 7β-[2-(5-Amino-1,2,4-thiadiazol-3-yl)-(Z)-2-methoxyiminoacetamido]-3-[(E)-3-(1,1-dioxo-4-methyl-4-thiomorpholinio)-1-propen-1-yl]-3-cephem-4-carboxylate] | 0.8 (≈ 1.4 µM) | 0.05 (≈ 0.0875 µM) | 0.4 (≈ 0.7 µM) | 0.1 (≈ 0.175 µM) | ≤ 0.025 | 0.05 (≈ 0.0875 µM) |  |  |  |  |  | 
8 | CO/N=C(\C(=O)N[C@@H]1C(=O)N2C(C(=O)[O-])=C(/C=C/C[N+](C)(C)Cc3csc(N)n3)CS[C@H]12)c1nsc(N)n1 [Example 25] | 3.13 (≈ 5.4 µM) | 0.05 (≈ 0.0863 µM) | 0.2 (≈ 0.345 µM) | 0.03 (≈ 0.0518 µM) | 0.03 (≈ 0.0518 µM) | ≤ 0.025 |  |  |  |  |  | 
9 | CO/N=C(\C(=O)N[C@@H]1C(=O)N2C(C(=O)[O-])=C(/C=C/C[N+](C)(C)Cc3cscn3)CS[C@H]12)c1nsc(N)n1 [Example 23, 7β-[2-(5-Amino-1,2,4-thiadiazol-3-yl)-(Z)-2-methoxyiminoacetamido]-3-[(E)-3[(thiazol-4-yl)methyldimethylammonio]-1-propen-1-yl]-3-cephem-4-carboxylate] | 3.13 (≈ 5.54 µM) | ≤ 0.025 | 0.2 (≈ 0.354 µM) | 0.05 (≈ 0.0885 µM) | ≤ 0.025 | ≤ 0.025 |  |  |  |  |  | 
10 | CO/N=C(\C(=O)N[C@@H]1C(=O)N2C(C(=O)[O-])=C(/C=C/C[N+]3(CCO)CCC(C(N)=O)CC3)CS[C@H]12)c1nsc(N)n1 (some centres unmarked) [Example 44-1] | 0.8 (≈ 1.35 µM) | 0.05 (≈ 0.0841 µM) | 0.4 (≈ 0.673 µM) | 0.05 (≈ 0.0841 µM) | ≤ 0.025 | 0.05 (≈ 0.0841 µM) |  |  |  |  |  | 
11 | CO/N=C(\C(=O)N[C@@H]1C(=O)N2C(C(=O)[O-])=C(/C=C/C[N+]3(C)CCC[C@H]3CO)CS[C@H]12)c1nsc(N)n1 (stereo partly drawn) [Example 3, 7β-[2-(5-Amino-1,2,4-thiadiazol-3-yl)-(Z)-2-methoxyiminoacetamido]-3-[(E)-3-((2S)-2-hydroxymethyl-1-methylpyrrolidinio)-1-propen-1-yl]-3-cephem-4-carboxylate] | 1.56 (≈ 2.9 µM) | 0.05 (≈ 0.093 µM) | 0.2 (≈ 0.372 µM) | 0.1 (≈ 0.186 µM) | ≤ 0.025 | 0.05 (≈ 0.093 µM) |  |  |  |  |  | 
12 | CO/N=C(\C(=O)N[C@@H]1C(=O)N2C(C(=O)[O-])=C(/C=C/C[N+]3(C)CC(O)CC3CO)CS[C@H]12)c1nsc(N)n1 (some centres unmarked) [Example 43] | 1.56 (≈ 2.82 µM) | ≤ 0.025 | 0.4 (≈ 0.723 µM) | 0.05 (≈ 0.0903 µM) | ≤ 0.025 | 0.05 (≈ 0.0903 µM) |  |  |  |  |  | 
13 | CO/N=C(\C(=O)N[C@@H]1C(=O)N2C(C(=O)[O-])=C(/C=C/C[N+]3(C)CCN(C=N)CC3)CS[C@H]12)c1nsc(N)n1 [Example 28, 7β-[2-(5-Amino-1,2,4-thiadiazol-3-yl)-(Z)-2-methoxyiminoacetamido]-3-[(E)-3-(1-methyl-4-formimidoyl-1-piperazinio)-1-propen-1-yl]-3-cephem-4-carboxylate] | 1.56 (≈ 2.84 µM) | 0.1 (≈ 0.182 µM) | 0.4 (≈ 0.728 µM) | 0.2 (≈ 0.364 µM) | 0.1 (≈ 0.182 µM) | 0.05 (≈ 0.091 µM) |  |  |  |  |  | 
14 | CO/N=C(\C(=O)N[C@@H]1C(=O)N2C(C(=O)[O-])=C(/C=C/C[N+](C)(C)CCN(C)C)CS[C@H]12)c1nsc(N)n1 [Example 12, 7β-[2-(5-Amino-1,2,4-thiadiazol-3-yl)-(Z)-2-methoxyiminoacetamido]-3-[(E)-3-(2-dimethylaminoethyldimethylammonio)-1-propen-1-yl]-3-cephem-4-carboxylate] | 1.56 (≈ 2.9 µM) | 0.1 (≈ 0.186 µM) | 0.4 (≈ 0.743 µM) | 0.1 (≈ 0.186 µM) | 0.05 (≈ 0.0928 µM) | 0.05 (≈ 0.0928 µM) |  |  |  |  |  | 
15 | CO/N=C(\C(=O)N[C@@H]1C(=O)N2C(C(=O)[O-])=C(/C=C/C[N+](C)(C)CC(C)=O)CS[C@H]12)c1nsc(N)n1 [Example 17, 7β-[2-(5-Amino-1,2,4-thiadiazol-3-yl)-(Z)-2-methoxyiminoacetamido]-3-[(E)-3-(2-oxopropyldimethylammonio)-1-propen-1-yl]-3-cephem-4-carboxylate] | 1.56 (≈ 2.98 µM) | 0.1 (≈ 0.191 µM) | 0.4 (≈ 0.764 µM) | 0.1 (≈ 0.191 µM) | 0.05 (≈ 0.0955 µM) | 0.05 (≈ 0.0955 µM) |  |  |  |  |  | 
16 | CO/N=C(\C(=O)N[C@@H]1C(=O)N2C(C(=O)[O-])=C(/C=C/C[N+](C)(C)Cc3cnc[nH]3)CS[C@H]12)c1nsc(N)n1 [Example 22] | 1.56 (≈ 2.85 µM) | 0.05 (≈ 0.0913 µM) | 0.2 (≈ 0.365 µM) | 0.1 (≈ 0.183 µM) | 0.05 (≈ 0.0913 µM) | 0.05 (≈ 0.0913 µM) |  |  |  |  |  | 
17 | CO/N=C(\C(=O)N[C@@H]1C(=O)N2C(C(=O)[O-])=C(/C=C/C[N+](C)(C)[C@H](C)C(N)=O)CS[C@H]12)c1nsc(N)n1 [Example 42] | 0.8 (≈ 1.49 µM) | 0.05 (≈ 0.0928 µM) | 0.2 (≈ 0.371 µM) | 0.1 (≈ 0.186 µM) | ≤ 0.025 | 0.05 (≈ 0.0928 µM) |  |  |  |  |  | 
18 | CO/N=C(\C(=O)N[C@@H]1C(=O)N2C(C(=O)[O-])=C(/C=C/C[N+]3(CCO)CCC(C(N)=O)CC3)CS[C@H]12)c1nsc(N)n1 (some centres unmarked) [Example 44-2] |  |  |  |  |  |  | 0.8 (≈ 1.35 µM) | ≤ 0.025 | 0.4 (≈ 0.673 µM) | 0.05 (≈ 0.0841 µM) | ≤ 0.025 | ≤ 0.025
19 | CO/N=C(\C(=O)N[C@@H]1C(=O)N2C(C(=O)[O-])=C(/C=C/C[N+]3(C)CCNCC3)CS[C@H]12)c1nsc(N)n1 [Example 5, 7β-[(2-(5-Amino-1,2,4-thiadiazol-3-yl)-(Z)-2-methoxyiminoacetamido]-3-[(E)-3-(1-methyl-1-piperadinio)-1-propen-1-yl]-3-cephem-4-carboxylate trifluoroacetate] | 0.8 | 0.1 | 0.2 | 0.1 | ≤ 0.025 | 0.05 |  |  |  |  |  | 
20 | CO/N=C(\C(=O)N[C@@H]1C(=O)N2C(C(=O)[O-])=C(/C=C/C[N+]3(C)CCCN3C)CS[C@H]12)c1nsc(N)n1 (single isomer, unassigned) [Example 30-A, 7β-[2-(5-Amino-1,2,4-thiadiazol-3-yl)-(Z)-2-methoxyiminoacetamido]-3-[(E)-(1,2-dimethyl-1-pirazolydinio)-1-propen-1-yl]-3-cephem-4-carboxylate] | 0.4 (≈ 0.765 µM) | ≤ 0.025 | 0.1 (≈ 0.191 µM) | 0.05 (≈ 0.0957 µM) | ≤ 0.025 | ≤ 0.025 |  |  |  |  |  | 
21 | CO/N=C(\C(=O)N[C@@H]1C(=O)N2C(C(=O)[O-])=C(/C=C/C[N+]3(CC(N)=O)CC[C@@H](O)C3)CS[C@H]12)c1nsc(N)n1 (some centres unmarked) [Example 45-2] |  |  |  |  |  |  | 0.8 (≈ 1.41 µM) | ≤ 0.025 | 0.4 (≈ 0.706 µM) |  | ≤ 0.025 | 0.05 (≈ 0.0882 µM)

Reference: patent publication US5373000A, “7Beta-(thiadiazolyl)-2-iminoacetamido-3cephem compounds” (Eisai Co., Ltd., priority 1985, dated 1994)
